Tests used:
Type in all cases: physicochemical
[1] = Durometer hardness of cured composition (Shore scales); conditions: in Acrylamide-polymer B; 0.25 inch thick section of cured material
From the text: (§1) Compositions were made from Acrylamide-polymer B and various compounds which might be considered useful as photosensitization systems. These included P-1 = 2 hydroxy-2-methylphenylpropan-1-one (Darocur^TM 1173) P-2 = diethoxyacetophenone P-3 = (1-hydroxycyclohexyl)phenylmethanone (Irgacure^TM 184) P-4 = benzophenone P-5 = a 50/50 weight mixture of P-1 and diisopropylaminoethanol. Each of the photosensitization systems were used in an amount of one weight percent except P-5 which was used in an amount of two weight percent. The weight percentage was based on the weight of Acrylamide-blend B. Each of the compositions were cured for a defined period of time by exposure to ultraviolet radiation on the LCU described in Example 2, set for 3 seconds per pass which measured about 400 mJ/cm² using a Light Bug. The hardness of the cured composition was measured by using equipment manufactured by Instrument MFG Co. on the Shore OO durometer scale using a 0.25 inch thick section of the cured material. The durometer was determined initially, after heat aging for 20 hours at 150°C. in an oven and after 20 hours in an autoclave at 12 1°C. and 15 psi pressure.
(§2) A gel composition was prepared by mixing 98 parts of Acrylamide-blend E, 1 part of (1-hydroxycyclohexyl)phenylmethanone and 1 part of a heat stability additive. Sodium and potassium contents were determined on uncured samples of the gel composition by using flame photometry of acid ashed gel composition after removal of silica by treatment with hydrofluoric acid. The amount of sodium and potassium were each less than 2 ppm. […] The irradiation dose was determined by using an IL 390 Light Bug manufactured by International Light of (Newburyport, Mass.). […] As determined by ASTM-D150, the dielectric constant at 100 Hz was 3.0 and at 100,000 Hz was 3.0. As determined by ASTM-D150, the dissipation factor at 100 Hz was 0.006 and at 100,000 Hz was 0.002. The glass transition temperature was -113°C. and there was no melting transition temperature as determined by differential scanning calorimetry. The thermal stability was determined by placing a sample of the cured gel composition in a forced air oven at 150°C. […] The autoclave stability was determined by placing a sample of cured gel composition in an autoclave at 121°C. with a pressure of 2.1 kg/cm².
(§3) A composition was prepared by blending 67 parts of Acrylamide-polymer D, 25 parts of 1,4 -butanediol diacrylate, 3 parts of 1-hydroxy-2-methyl-1-phenylpropan-1-one, 5 parts of an adhesion additive, 100 ppm of phenothiazine and 100 ppm of the monomethyl ether of hydroquinone. […] The ionic purity was determined and there was less than 2 ppm of sodium and less than 2 ppm potassium. […]

[2] = Heat aging / thermal stability of cured composition in oven at 150°C (durometer); conditions: in Acrylamide-polymer B; after 20 hours at 150°C in an oven
From the text: as §1, §2, §3

[3] = Autoclave stability of cured composition at 121°C (durometer); conditions: in Acrylamide-polymer B; after 20 hours in an autoclave at 12 1°C and 15 psi
From the text: as §1, §2, §3

Compound | DUROMETER INITIAL [1] [Shore OO] | DUROMETER HEAT AGED [2] [Shore OO] | DUROMETER AUTOCLAVE [3] [Shore OO]
O=C(c1ccccc1)C1(O)CCCCC1 [P-3, (1-hydroxycyclohexyl)phenylmethanone] | 41 | 42 | 40
O=C(c1ccccc1)c1ccccc1 [P-4, benzophenone] | 44 | 43 | 44
CCOC(OCC)C(=O)c1ccccc1 [P-2, diethoxyacetophenone] | 42 | 30 | 47
CC(C)(O)C(=O)c1ccccc1 [P-1, 2 hydroxy-2-methylphenylpropan-1-one] | 45 | 36 | 39

Reference: EP0400785A2, “Ultraviolet curable phenyl and acrylamide group-containing silicone compositions” (DOW CORNING CORPORATION, priority 1989, dated 1990)
